# Laboratory results from patent US20230287003A1, “BCL6 INHIBITORS” (Cancer Research Technology Limited, priority 2018, published 2023).
# Biological target: human BCL6 BTB domain (Trx-6×His-BCL6) / BCOR-AF633 peptide (Homo sapiens (Human), UniProt P41182)
# Assay: HTRF assay
# Type: binding
# Details: 1 nM Trx-6×His-BCL6, 300 nM BCOR-AF633 peptide, 2 hours incubation
row,Compound,HTRF avg pIC50 (1 nM)
1,"C[C@H]1CCOc2c(c3cc(Nc4cc(C(=O)O)nc(Cl)c4C#N)ccc3n(C)c2=O)N1 [Example 2a, (S)-6-chloro-5-cyano-4-((2,7-dimethyl-6-oxo-1,2,3,4,6,7-hexahydro-[1,4]ox-azepino[2,3-c]quinolin-10-yl)amino)picolinic acid]",7.26
2,"Cn1c(=O)c2c(c3cc(Nc4ccncc4Cl)ccc31)N[C@@H](C1CC1)C(F)(F)CO2 [Example 4d, (S)-10-((3-chloropyridin-4-yl)amino)-2-cyclopropyl-3,3-difluoro-7-methyl-1,2,3,4-tetrahydro-[1,4]oxazepino[2,3-c] quinolin-6(7H)-one]",7.99
3,"Cn1c(=O)c2c(c3cc(Nc4ccnc(Cl)c4C#N)ccc31)NC1(CCOC1)CCO2 (stereo not shown) [Example 1o, 2-chloro-4-((7′-methyl-6′-oxo-3′,4,4′,5,6′,7′-hexahydro-1′H,2H-spiro[furan-3,2′-[1,4]oxazepino[2,3-c]quinolin]-10′-yl)amino)nicotinonitrile]",6.14
4,"(R)-10-((5-chloro-2-((R)-4,4-difluoro-3- hydroxypiperidin-1-yl)pyrimidin-4-yl)amino)-2-cyclopropyl-7- methyl-1,2,3,4-tetrahydro-[1,4]oxazepino[2,3-c]quinolin-6(7H)- one or (R)-10-((5-chloro-2((S)-4,4-difluoro-3-hydroxypiperidin-1- yl)pyrimidin-4-yl)amino)-2-cyclopropyl-7-methyl-1,2,3,4- tetrahydro-[1,4]oxazepino[2,3-c]quinolin-6(7H)-one [Example 12y]",7.73
5,"(S)-10-((5-chloro-2-((3R,5S)-3-hydroxy-5- methylpiperidin-1-yl)pyrimidin-4-yl)amino)-2,7-dimethyl-1,2,3,4- tetrahydro-[1,4]oxazepino[2,3-c]quinolin-6(7H)-one or (S)-10-((5- chloro-2-((3S,5R)-3-hydroxy-5-methylpiperidin-1-yl)pyrimidin-4- yl)amino)-2,7-dimethyl-1,2,3,4-tetrahydro- [1,4]oxazepino[2,3-c]quinolin-6(7H)-one [Example 12k]",7.04
6,"CC1Nc2c(c(=O)n(C)c3ccc(Nc4ccnc(Cl)c4C#N)cc23)OCC12CC2 (stereo not shown) [Example 1i, 2-chloro-4-((2′,7′-dimethyl-6′-oxo-1′,2′,6′,7′-tetrahydro-4′H-spiro[cyclopropane-1,3^′-[1,4]oxazepino[2,3-c]quinolin]-10^′-yl)amino)nicotinonitrile]",5.97
7,"CCC1COc2c(c3cc(Nc4ccnc(Cl)c4C#N)ccc3n(C)c2=O)N1 (stereo not shown) [Example 1l, 2-chloro-4-((2-ethyl-6-methyl-5-oxo-2,3,5,6-tetrahydro-1H-[1,4]oxazino[2,3-c]quinolin-9-yl)amino)nicotinonitrile]",6.22
8,"(R)-10-((5-chloro-2-((R)-4,4-difluoro-3- methylpiperidin-1-yl)pyrimidin-4-yl)amino)-2-cyclopropyl-7- methyl-1,2,3,4-tetrahydro-[1,4]oxazepino[2,3-c]quinolin- 6(7H)-one or (R)-10-((5-chloro-2-((S)-4,4-difluoro-3- methylpiperidin-1-yl)pyrimidin-4-yl)amino)-2-cyclopropyl- 7-methyl-1,2,3,4-tetrahydro-[1,4]oxazepino[2,3-c]quinolin- 6(7H)-one [Example 14b]",6.98
9,"(R)-10-((5-chloro-2-((S)-4,4-difluoro-3- (hydroxymethyl)piperidin-1-yl)pyrimidin-4-yl)amino)-2- cyclopropyl-7-methyl-1,2,3,4-tetrahydro- [1,4]oxazepino[2,3-c]quinolin-6(7H)-one or (R)-10-((5-chloro- 2-((R)-4,4-difluoro-3-(hydroxymethyl)piperidin-1-yl)pyrimidin- 4-yl)amino)-2-cyclopropyl-7-methyl-1,2,3,4-tetrahydro- [1,4]oxazepino[2,3-c]quinolin-6(7H)-one [Example 15c]",7.55

# Further lines, results first:
row,HTRF avg pIC50 (1 nM),Compound
1,8.68,"Cn1c(=O)c2c(c3cc(Nc4nc(N5CCc6ncnc(O)c6C5)ncc4Cl)ccc31)N[C@@H](C1CC1)C(F)(F)CO2 [Example 13a, (S)-10-((5-chloro-2-(4-hydroxy-7,8-dihydropyrido[4,3-d]pyrimidin-6(5H)-yl)pyrimidin-4-yl)amino)-2-cyclopropyl-3,3-difluoro-7-methyl-1,2,3,4-tetrahydro-[1,4]oxazepino[2,3-c]quinolin-6(7H)-one]"
2,8.66,"Cn1c(=O)c2c(c3cc(Nc4nc(N5CCN(CCC#N)CC5)ncc4Cl)ccc31)N[C@@H](C1CC1)C(F)(F)CO2 [Example 13f, (S)-3-(4-(5-chloro-4-((2-cyclopropyl-3,3-difluoro-7-methyl-6-oxo-1,2,3,4,6,7-hexahydro-[1,4]oxazepino[2,3-c]quinolin-10-yl)amino)pyrimidin-2-yl)piperazin-1-yl)propanenitrile]"
3,6.36,"C[C@@H]1C[C@H](C)CN(c2ncc(Cl)c(Nc3ccc4c(c3)c3c(c(=O)n4C)C(=O)OC[C@H](C4CC4)N3)n2)C1 [Example 8l, (S)-10-((5-chloro-2-((3R,5S)-3,5-dimethylpiperidin-1-yl)pyrimidin-4-yl)amino)-2-cyclopropyl-7-methyl-2,3-dihydro-[1,4]oxazepino[6,5-c]quinoline-5,6(1H,7H)-dione]"
4,6.93,"C[C@@H]1CN(c2ncc(Cl)c(Nc3ccc4c(c3)c3c(c(=O)n4C)OCC[C@H](C4CC4)N3)n2)C[C@H](C)[C@H]1F [Example 12e, (R)-10-((5-chloro-2-((3S,4R,5R)-4-fluoro-3,5-dimethylpiperidin-1-yl)pyrimidin-4-yl)amino)-2-cyclopropyl-7-methyl-1,2,3,4-tetrahydro-[1,4]oxazepino[2,3-c]quinolin-6(7H)-one]"

# Same assay, conditions: HTRF avg pIC50 (1 nM), 1 nM Trx-6×His-BCL6, 300 nM BCOR-AF633 peptide, 2 hours incubation
row,IC50 [µM],Compound
1,0.479,"CC1Nc2c(c(=O)n(C)c3ccc(Nc4nc(N5C[C@H](C)C[C@H](C)C5)ncc4Cl)cc23)C(=O)OC1C (mixture of isomers) [Example 8q, rac-(2S,3R)-10-((5-chloro-2-((3S,5R)-3,5-dimethylpiperidin-1-yl)pyrimidin-4-yl)amino)-2,3,7-trimethyl-2,3-dihydro-[1,4]oxazepino[6,5-c]quinoline-5,6(1H,7H)-dione or rac-(2S,3S)-10-((5-chloro-2-((3S,5R)-3,5-dimethylpiperidin-1-yl)pyrimidin-4-yl)amino)-2,3,7-trimethyl-2,3-dihydro-[1,4]oxazepino[6,5-c]quinoline-5,6(1H,7H)-dione]"

# Same assay, conditions: read-out: IC50 in the HTRF assay
row,IC50 [µM],Compound
1,> 2.5,"CC(=O)N1CC2CC(C1)CN(c1ncc(Cl)c(Nc3ccc4c(c3)c3c(c(=O)n4C)C(=O)OC[C@H](C)N3)n1)C2 [(2S)-10-((2-(7-acetyl-3,7-diazabicyclo[3.3.1]nonan-3-yl)-5-chloropyrimidin-4-yl)amino)-2,7-dimethyl-2,3-dihydro-[1,4]oxazepino[6,5-c]quinoline-5,6(1H,7H)-dione]"
2,> 2.5,"Cn1c(=O)c2c(c3cc(Nc4ccnc(Cl)c4C#N)ccc31)NC(C1CCC1)CCO2 (stereo not shown) [2-chloro-4-((2-cyclobutyl-7-methyl-6-oxo-1,2,3,4,6,7-hexahydro-[1,4]oxazepino[2,3-c]quinolin-10-yl)amino)nicotinonitrile]"
